Laboratory results taken from ChEMBL document CHEMBL3886430, “Heterocyclic derivative and pharmaceutical drug” (2015).

Target: T1, Prostaglandin E synthase (Homo sapiens, UniProt O14684)
T1 sequence (O14684 whole entry): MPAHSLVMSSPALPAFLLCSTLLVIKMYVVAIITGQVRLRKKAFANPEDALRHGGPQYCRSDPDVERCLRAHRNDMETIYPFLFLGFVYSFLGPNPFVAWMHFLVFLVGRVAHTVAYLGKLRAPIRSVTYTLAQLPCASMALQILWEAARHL
Experiment: Inhibition Assay: mPGES-1 microsome fractions were prepared from CHO-K1 cells transiently transfected with plasmid encoding the human mPGES-1cDNA. Microsomes were diluted with potassium phosphate buffer containing reduced glutathione (pH7.4), and DMSO containing test compound or DMSO alone was added (such that DMSO final concentration would be 1% in each) and incubated at 4° C. for 20 minutes. Then, the enzymatic reactions were initiated by the addition of PGH2 substrate (final concentration 1 μM) and incubated at 4° C. for 60 seconds. The reaction was terminated by the addition of a citrate solution (final citrate concentration 50 mM) containing ferric chloride (final concentration 1 mg/mL). PGE2 production in the enzyme reaction aliquot was measured using HTRF kit (Cisbio International, catalogue #62P2APEC).
Type: cell-based

O=C(Nc1cc(C(=O)NCc2ccccc2C(F)(F)F)c2nc[nH]c2c1)c1ccccc1C(F)(F)F
IC50: 12.7 nM
